# Assay results published in USRE47528E1, “Protease for wound conditioning and skin care” (B.R.A.I.N. BIOTECHNOLOGY RESEARCH AND INFORMATION NETWORK AG, priority 2009, dated 2019).
# “Also recorded” adds a separate entry of the source.
# T1: human PAR2 (Homo sapiens, UniProt P55085)
# T1 construct: wild type HEK293 cell line endogenously expressing human PAR2; endogenous in cells; host or cells: HEK293
# T1 sequence (P55085 26-397): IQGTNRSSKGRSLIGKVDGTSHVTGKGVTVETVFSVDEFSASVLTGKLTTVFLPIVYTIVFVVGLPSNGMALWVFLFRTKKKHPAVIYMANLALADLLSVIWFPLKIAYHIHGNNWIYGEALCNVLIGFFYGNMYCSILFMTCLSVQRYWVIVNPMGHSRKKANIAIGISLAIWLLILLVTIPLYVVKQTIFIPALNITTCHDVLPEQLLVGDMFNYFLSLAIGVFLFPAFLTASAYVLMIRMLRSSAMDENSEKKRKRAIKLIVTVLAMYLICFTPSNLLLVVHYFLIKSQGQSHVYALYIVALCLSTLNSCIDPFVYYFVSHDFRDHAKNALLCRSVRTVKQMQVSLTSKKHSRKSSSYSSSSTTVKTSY
# B1: debrilase: recombinant trypsin-like serine protease from Lucilia sericata; mature protein SEQ ID NO: 4 (protein, listed as Lucilia sericata)
# chain: IVNGVDTTIQAHPYQVSLQTNNGFHFCGGSIISEDIIVTAAHCMQSYKAYQFKVRLGSTEYDNGGELVAVKSFKYHEGYNPETMVNDVAVIKLATPVRESSKVRYVKLAEKTPATGTPAVVTGWGSKCFLFCQTAPKVLQKVEVDIVDEKTCASSEYKYGDDIKETMLCAYAVKKDACQGDSGGPLVANNKLVGVVSWGKGCALAGYPGVYCDVATVRSWIEKTAKSL
# Tests used:
# [1] = test system: larval secretions; settings: cited from earlier work
# [2] = test system: debrilase; assay: Liquid phase activity assay and inhibitory profiling (BODIPY-FL-Casein fluorescence assay); format: biochemical, Lucilia sericata; settings: for inhibition of debrilase activity: PMSF 5 mmol/l, APMSF 1 mmol/l
# Description: Quantification of proteolytic activity was conducted by a fluorescence assay in 96-well plates with BODIPY-FL-Casein (Molecular Probes) used as substrate. Hereby, on the undigested substrate casein the labelling molecules are in close contact to each other and therefore fluorescence is suppressed by a quenching mechanism. In case of hydrolysis these molecules separate from each other and fluorescence can be excited at 485 nm and measured at 520 nm.
# A standard assay contained 5 μg/ml BODIPY-FL-Casein in 100 μl PBS buffer and a series of dilutions of protease extract. Samples were incubated for 60 min at 37° C. and fluorescence was measured using a spectrophotometer (NovoStar, BMG LABTECH, Offenburg, Germany), applying the following parameters: excitation 485 nm, emission 520 nm, gain 5, one cycle, 10 flashes. Serine protease inhibitors APMSF (4-amidinophenylmethanesulfonyl fluoride) and PMSF (phenylmethanesulfonyl fluoride) were used for testing the specificity of the isolated protease. The following assay concentration were used:
# The recombinant protease type was identified in a liquid assay in a 96-well plate using inhibitors specific for different types of proteases. Herein, specific inhibitors for trypsin (4-amidinophenylmethyl-sulphonyl fluoride, APMSF), serine (phenylmethylsulphonyl fluoride, PMSF), aspartyl-(pepstatin A) and metallo-type proteases (1,10-phenanthroline) were measured.
# [3] = test system: Lucilia sericata debrilase (trypsin-like serine protease), mature protein SEQ ID NO: 4, pre-propeptide SEQ ID NO: 2; assay: Enzyme kinetics of Debrilase, fluorometric assay with Z-Gly-Gly-Arg-AMC; format: biochemical
# Description: (§1) Activity of the debrilase was measured in liquid assay using appropriate buffer systems in the range of 3-10 (0.1 to 0.2 M citric acid buffer, pH 3-7; 0.05 M tris buffer, pH 8; 0.1 M carbonate buffer, pH 9-10) and the fluorogenic substrate Z-Gly-Gly-Arg-AMC. The release of 7-amino-4-methylcoumarin (AMC) was measured with a BMC Novostar Fluorometer (λexcitation 365 nm, λemission 440 nm).
# Molecular and Enzymatic Properties of Debrilase
# [4] = test system: casein; assay: Diffusion assay on agar containing casein / skim milk; format: biochemical
# Source text: FIG. 1: Diffusion assay on agar containing casein showing a clearing zone around a debrilase secreting clone of E. coli.
# Colony forming units resulted from mass excision described above were screened on agar media containing 2% skim milk under selective conditions. Expression of heterologous proteases was driven by the vector comprising inducible Plac promoter. Colonies expressing heterologous proteases were detected by the formation of clearing zones in the turbid Skim Milk medium around the colonies.
# [5] = test system: fibrin; assay: Solid phase activity assay for fibrinolytic activity (fibrin agar); format: biochemical; settings: fibrin containing agar
# Description: To identify fibrinolytic activity in extracts of casein degrading clones a solid agar assay was used. For this, a solution A containing 200 mg agarose, 87 mg NaCl and 3 mg CaCl2 were added to 10 ml 0.1 M Tris pH7.4 and incubated at 50° C. To a second solution B containing 10 ml 0.9% NaCl and 100 mg Fibrin (Sigma F3879), 20 μl Plasminogen (2 units/mg, Sigma P7397) e added and pre-incubated at 50° C. Both solutions were combined with 12 μl Thrombin (175-350 NIH units, Sigma T4265) and spread on agar plates using micro-well forming devices. In case of a fibrinolytic activity a clear zone appears in the opaque medium around extract containing cavities.
# To identify fibrinolytic activity in casein degrading clones a solid agar assay was used. Therefore a medium A consisting of 10 ml 2× Luria Bertani containing 200 mg agarose, 87 mg NaCl and 3 mg CaCl2 was incubated at 50° C. To a solution B containing 10 ml 0.9% NaCl and 100 mg Fibrin (Sigma F3879), 20 μl plasminogen (2 units/mg, Sigma P7397) was added and pre-incubated at 50° C. […]
# Fibrinolytic activity in cell free crude extracts was determined using buffered agar medium containing fibrin. […] Crude extract with fibrinolytic activity was detected by a clear zone around microwells of the recombinant clone harbouring the protease gene of SEQ ID NO. […]
# [6] = test system: Z-Gly-Gly-Arg-AMC; assay: Fluorometric liquid assay using Z-Gly-Gly-Arg-AMC as substrate; format: biochemical
# Description: as §1
# [7] = target: T1, human PAR2; assay: Activation of PAR 2 (calcium imaging) in HEK293 cells; format: cell-based; settings: HEK293 cells endogenously expressing human PAR2, Ca2+-flux read-out
# Description: The activity of debrilase as agonist of PAR 2 was monitored over time in a cell based fluorescence assay by use of a wild type HEK293 cell line endogenously expressing human PAR2. In brief, 1 day prior to performing the assay, HEK293 cells expressing human PAR2 were plated onto 96-well, black-walled, assay plates, at a density of 45,000 cells per well. Using a 96-well microplate reader (FlexStation®, Molecular Devices, Sunnyvale, Calif.), the change of the cellular calcium concentration was monitored by use of the calcium sensitive fluorescent dye fluo-4 (excitation 494 nm, emission 516 nm). The PAR 2 agonist trypsin (8 nM) was used as positive control. The dye-loaded cells in plates were placed into the fluorescence microplate reader to monitor fluorescence (excitation 488 nm, emission 520 nm) change after the addition of 50 μl assay buffer (118 mM NaCl; 4.7 mM KCl; 1.2 mM MgSO4; 1.2 mM KH2PO4 4.2 mM […]; 1.3 mM CaCl2; 10 mM HEPES (pH: 7.4)) supplemented with an agonist. Calcium mobilization was quantified as the change of peak fluorescence (ΔF) over the baseline level (F). Data were expressed as the mean S.E. of the ΔF/F value (=RFU, relative fluorescence units) of replicated independent samples. The analysis was done with the software of the FlexStation®.
# [8] = test system: Tosyl-Gly-Pro-Arg-AMC; assay: Proteolytic activity against Tosyl-Gly-Pro-Arg-AMC; format: biochemical
# [9] = test system: Suc-Ala-Ala-Phe-AMC; assay: Proteolytic activity against Suc-Ala-Ala-Phe-AMC; format: biochemical
molecule,measurement,setting,value
"c1cnc2c(c1)ccc1cccnc12 [1,10-phenanthroline]",inhibition of degradation of laminin and fibronectin by larval secretions,[1],not significantly
"N=C(N)c1ccc(CS(=O)(=O)F)cc1 [APMSF, 4-amidinophenylmethanesulfonyl fluoride]",inhibition of proteolytic activity of debrilase against casein and fibrin,[2],inhibited
same,inhibition of debrilase activity,[2],inhibited completely
same,inhibition of degradation of laminin and fibronectin by larval secretions,[1],not significantly
"O=S(=O)(F)Cc1ccccc1 [PMSF, phenylmethanesulfonyl fluoride]",inhibition of proteolytic activity of debrilase against casein and fibrin,[2],inhibited
same,inhibition of debrilase activity,[2],inhibited completely
same,inhibition of degradation of laminin and fibronectin by larval secretions,[1],inhibited
Cc1cc(=O)oc2cc(NC(=O)[C@H](CCCNC(=N)N)NC(=O)CNC(=O)CNC(=O)OCc3ccccc3)ccc12 [Z-Gly-Gly-Arg-AMC],Kcat,"[3]; Table 1, substrate Z-Gly-Gly-Arg-AMC (footnote)",37.5 s⁻¹
same,Km,"[3]; substrate Z-Gly-Gly-Arg-AMC, fluorometric assay",70 µM
B1,caseinolytic activity (cleavage of casein),[4],"clearing zone; also recorded: ability to cleave fibrin and casein; also recorded: exhibits proteolytic activity against fibrin, casein"
same,fibrinolytic activity (cleavage of fibrin),[5],clearing zone; also recorded: ability to cleave fibrin; also recorded: exhibits proteolytic activity against fibrin
same,Topt,[6],37 °C
same,pHopt,[6],8
same,pH-range of enzymatic activity,"[6]; buffer systems in the range of pH 3-10, Z-Gly-Gly-Arg-AMC",5-10 pH
same,specific activity,[6]; fluorometric assay using Z-Gly-Gly-Arg-AMC as substrate,90 μmol* · min^−1 · mg^−1 enzyme
same,activation of protease-activated receptor 2 (PAR 2),[7],activates the protease-activated receptor PAR-2
same,proteolytic activity against Tosyl-Gly-Pro-Arg-AMC,[8],"exhibits proteolytic activity against fibrin, casein and Tosyl-Gly-Pro-Arg-AMC"
same,proteolytic activity against Suc-Ala-Ala-Phe-AMC,[9],not against Suc-Ala-Ala-Phe-AMC
